According to ChEMBL document CHEMBL6092203, “Discovery of Novel PROTAC-Based HPK1 Degraders with High Potency and Selectivity for Cancer Immunotherapy” (J Med Chem, 2024):

Key:
[1] = biological target: Protein cereblon/Mitogen-activated protein kinase kinase kinase kinase 1 (Homo sapiens, UniProt Q92918+Q96SW2); test: PROTAC activity at CRBN/HPK1 in human Jurkat cells assessed as HPK1 degradation at 1 uM by Western blotting analysis; assay type: cell-based; details: time 4-72 hrs
[2] = Initial plasma concentration in C57BL/6J mouse at 2 mg/kg, iv measured upto 24 hrs by LC-MS analysis; assay type: ADME, organism-based
MC-38 = test: Synergistic antitumor activity against mouse MC38 cells implanted in C57BL/6J mouse assessed as tumor weight inhibition rate at 100 mg/kg, po QD measured after 4 weeks in presence of 5 mg/kg anti-PD1 and measured twice a week; assay type: functional; set-up: scale not given: the % may be the effect or the level left
in vitro [3] = details: mouse, hepatocytes
in vitro [4] = details: dog, hepatocytes

Sequence of Protein cereblon/Mitogen-activated protein kinase kinase kinase kinase 1 (Q92918 whole entry, looked up): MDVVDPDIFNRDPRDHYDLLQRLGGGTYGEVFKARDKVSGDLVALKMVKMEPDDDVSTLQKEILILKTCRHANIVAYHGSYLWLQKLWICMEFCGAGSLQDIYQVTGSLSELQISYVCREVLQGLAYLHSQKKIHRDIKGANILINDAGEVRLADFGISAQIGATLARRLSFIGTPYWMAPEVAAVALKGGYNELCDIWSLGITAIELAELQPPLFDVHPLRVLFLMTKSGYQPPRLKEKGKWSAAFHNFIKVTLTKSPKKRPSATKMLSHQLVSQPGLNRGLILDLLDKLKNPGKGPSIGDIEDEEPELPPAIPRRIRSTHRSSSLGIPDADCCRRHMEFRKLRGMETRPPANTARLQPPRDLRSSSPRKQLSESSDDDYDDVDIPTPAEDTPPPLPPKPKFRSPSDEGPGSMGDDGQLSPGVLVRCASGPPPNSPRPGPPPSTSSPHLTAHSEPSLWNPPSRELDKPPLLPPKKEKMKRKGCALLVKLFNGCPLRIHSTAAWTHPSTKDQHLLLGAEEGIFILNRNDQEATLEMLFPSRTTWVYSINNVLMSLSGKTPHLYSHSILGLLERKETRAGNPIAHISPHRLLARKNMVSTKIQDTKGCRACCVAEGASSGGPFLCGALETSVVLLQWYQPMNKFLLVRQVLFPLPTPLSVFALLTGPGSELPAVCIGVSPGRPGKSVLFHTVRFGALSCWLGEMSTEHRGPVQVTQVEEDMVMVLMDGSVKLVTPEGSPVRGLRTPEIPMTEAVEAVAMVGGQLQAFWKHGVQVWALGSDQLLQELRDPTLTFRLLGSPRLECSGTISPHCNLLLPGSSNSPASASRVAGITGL
Sequence of Protein cereblon/Mitogen-activated protein kinase kinase kinase kinase 1 (Q96SW2 whole entry, looked up): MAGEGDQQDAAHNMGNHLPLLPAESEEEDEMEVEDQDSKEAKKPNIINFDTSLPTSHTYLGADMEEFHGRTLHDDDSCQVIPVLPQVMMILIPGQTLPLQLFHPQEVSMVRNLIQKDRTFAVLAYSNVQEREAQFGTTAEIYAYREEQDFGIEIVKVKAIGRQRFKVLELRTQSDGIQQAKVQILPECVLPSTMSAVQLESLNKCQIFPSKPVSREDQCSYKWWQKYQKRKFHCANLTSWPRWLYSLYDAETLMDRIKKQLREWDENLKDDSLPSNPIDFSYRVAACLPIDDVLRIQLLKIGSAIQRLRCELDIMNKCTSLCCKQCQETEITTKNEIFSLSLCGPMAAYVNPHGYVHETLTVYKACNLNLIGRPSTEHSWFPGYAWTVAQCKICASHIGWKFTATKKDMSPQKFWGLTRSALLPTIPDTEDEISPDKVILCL

O=C1CCN(c2cc(C(=O)N3CCC(CC4CCN(c5ccc(-c6cnc7[nH]cc(-c8cnn(CC(F)(F)F)c8)c7n6)cn5)CC4)CC3)ccc2Cl)C(=O)N1
Activity [1]: Time-dependent-effect
C0 at 24 h [2]: 1590 ng/mL
Activity (MC-38): 83.04%
half-life at 1.5 h, 1 µM (in vitro [3]): 7.62 h
half-life at 1.5 h, 1 µM (in vitro [4]): 3.47 h
